Our source for the Normal melting temperature values is the NIST ThermoML archive (doi:10.1021/je900653p).

The structures appear in SMILES notation. Numbers after ± are expanded uncertainties.

The conditions of the series: Crystal.
For `CC12CCC(CC1)C(C)(C)O2` [1,3,3-trimethyl-2-oxabicyclo[2.2.2]octane], the Normal melting temperature turned out to be 1.2 ± 1.2 °C.

Take `Cc1ccc(C(C)C)cc1` [1-(1-methylethyl)-4-methylbenzene]: the Normal melting temperature was -68.5 ± 0.8 °C.

As for `C=C1C2CCC(C2)C1(C)C` (centres undefined) [2,2-dimethyl-3-methylenebicyclo[2.2.1]heptane], the Normal melting temperature stood at 51.1 ± 0.8 °C.

Consider `C=C1CC[C@H]2C[C@@H]1C2(C)C` [(1S,5S)-6,6-dimethyl-2-methylenebicyclo[3.1.1]heptane], for which the Normal melting temperature was -61.5 ± 0.8 °C.
